Data: ChEMBL document CHEMBL1144174, “Design and synthesis of 6-fluoro-2-naphthyl derivatives as novel CCR3 antagonists with reduced CYP2D6 inhibition” (Bioorg Med Chem, 2008)
Calls of active or inactive are those of the source. No cut-off for these calls is given here.

Tests used:
[1] = biological target: T1, C-C chemokine receptor type 3 (Homo sapiens, UniProt P51677); test: Antagonist activity at CCR3 receptor expressed in mouse B300-19 cells assessed as inhibition of eotaxin-induced calcium influx by spectrophotometry; assay type: functional, cell-based
T1 sequence (P51677 whole entry): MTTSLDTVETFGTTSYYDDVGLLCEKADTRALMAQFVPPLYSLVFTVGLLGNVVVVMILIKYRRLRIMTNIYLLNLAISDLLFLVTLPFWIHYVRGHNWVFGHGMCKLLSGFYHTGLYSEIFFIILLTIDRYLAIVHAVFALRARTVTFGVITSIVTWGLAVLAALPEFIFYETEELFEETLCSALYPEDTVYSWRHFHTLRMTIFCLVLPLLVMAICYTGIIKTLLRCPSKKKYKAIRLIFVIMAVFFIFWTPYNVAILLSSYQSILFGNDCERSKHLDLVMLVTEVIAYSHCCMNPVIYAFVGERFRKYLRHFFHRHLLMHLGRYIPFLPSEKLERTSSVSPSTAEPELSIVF

[2] = biological target: Cytochrome P450 2D6 (Homo sapiens, UniProt P10635); test: Inhibition of human CYP2D6 by fluorescence technique in presence of NADP; assay type: ADME
Chain of Cytochrome P450 2D6 (P10635 whole entry): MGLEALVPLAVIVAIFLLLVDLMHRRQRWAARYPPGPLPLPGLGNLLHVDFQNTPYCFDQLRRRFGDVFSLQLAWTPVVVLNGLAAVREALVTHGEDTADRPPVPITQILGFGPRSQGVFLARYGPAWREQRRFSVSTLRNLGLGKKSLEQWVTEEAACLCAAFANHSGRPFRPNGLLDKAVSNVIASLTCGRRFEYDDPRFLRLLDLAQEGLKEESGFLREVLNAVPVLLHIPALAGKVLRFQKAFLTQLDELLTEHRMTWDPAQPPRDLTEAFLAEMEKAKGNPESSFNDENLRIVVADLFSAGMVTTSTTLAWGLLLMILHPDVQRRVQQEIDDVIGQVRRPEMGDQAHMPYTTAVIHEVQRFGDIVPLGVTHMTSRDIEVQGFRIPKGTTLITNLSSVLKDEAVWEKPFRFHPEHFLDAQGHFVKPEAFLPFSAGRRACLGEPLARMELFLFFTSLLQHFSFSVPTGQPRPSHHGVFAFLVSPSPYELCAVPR

[3] = biological target: C-C chemokine receptor type 5 (Homo sapiens) (UniProt P51681); test: Inhibition of CCR5 receptor at 10 uM
Chain of C-C chemokine receptor type 5 (Homo sapiens) (P51681 whole entry, looked up): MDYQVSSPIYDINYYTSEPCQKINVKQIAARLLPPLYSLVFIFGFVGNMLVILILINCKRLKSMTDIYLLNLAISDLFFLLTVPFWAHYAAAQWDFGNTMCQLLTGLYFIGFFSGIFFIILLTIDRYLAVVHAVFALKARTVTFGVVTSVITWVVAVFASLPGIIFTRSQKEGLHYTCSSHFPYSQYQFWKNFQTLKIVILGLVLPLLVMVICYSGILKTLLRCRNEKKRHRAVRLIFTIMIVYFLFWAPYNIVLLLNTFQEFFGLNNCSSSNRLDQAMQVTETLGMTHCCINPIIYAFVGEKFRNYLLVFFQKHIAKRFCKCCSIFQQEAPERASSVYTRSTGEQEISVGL

[4] = biological target: C-C chemokine receptor type 2 (Homo sapiens) (UniProt P41597); test: Inhibition of CCR2 receptor at 10 uM
Chain of C-C chemokine receptor type 2 (Homo sapiens) (P41597 whole entry, looked up): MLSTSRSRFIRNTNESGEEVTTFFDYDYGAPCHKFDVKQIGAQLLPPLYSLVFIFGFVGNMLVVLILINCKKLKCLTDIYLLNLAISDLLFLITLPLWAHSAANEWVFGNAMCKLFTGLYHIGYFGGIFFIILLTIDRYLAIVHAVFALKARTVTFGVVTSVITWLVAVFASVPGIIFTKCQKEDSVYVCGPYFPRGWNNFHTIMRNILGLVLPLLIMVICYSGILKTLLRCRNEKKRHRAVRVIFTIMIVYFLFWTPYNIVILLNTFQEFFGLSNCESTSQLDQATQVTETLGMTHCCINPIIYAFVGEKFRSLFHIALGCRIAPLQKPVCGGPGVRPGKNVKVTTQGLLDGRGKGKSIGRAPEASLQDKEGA

[5] = biological target: T2, C-C chemokine receptor type 1 (Homo sapiens) (UniProt P32246); test: Inhibition of CCR1 receptor at 10 uM
T2 sequence (whole entry): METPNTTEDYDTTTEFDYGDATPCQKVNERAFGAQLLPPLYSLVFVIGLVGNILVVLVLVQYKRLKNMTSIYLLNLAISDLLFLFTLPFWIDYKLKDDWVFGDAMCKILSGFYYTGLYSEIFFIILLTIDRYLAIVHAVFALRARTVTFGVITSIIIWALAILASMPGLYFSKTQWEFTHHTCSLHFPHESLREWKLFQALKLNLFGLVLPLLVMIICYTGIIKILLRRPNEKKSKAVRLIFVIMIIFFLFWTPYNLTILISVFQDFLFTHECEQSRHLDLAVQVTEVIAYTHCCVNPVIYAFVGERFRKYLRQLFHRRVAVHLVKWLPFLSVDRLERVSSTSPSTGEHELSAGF

[6] = biological target: Cytochrome P450 3A4 (Homo sapiens, UniProt P08684); test: Inhibition of human CYP3A4; assay type: ADME
Chain of Cytochrome P450 3A4 (P08684 whole entry): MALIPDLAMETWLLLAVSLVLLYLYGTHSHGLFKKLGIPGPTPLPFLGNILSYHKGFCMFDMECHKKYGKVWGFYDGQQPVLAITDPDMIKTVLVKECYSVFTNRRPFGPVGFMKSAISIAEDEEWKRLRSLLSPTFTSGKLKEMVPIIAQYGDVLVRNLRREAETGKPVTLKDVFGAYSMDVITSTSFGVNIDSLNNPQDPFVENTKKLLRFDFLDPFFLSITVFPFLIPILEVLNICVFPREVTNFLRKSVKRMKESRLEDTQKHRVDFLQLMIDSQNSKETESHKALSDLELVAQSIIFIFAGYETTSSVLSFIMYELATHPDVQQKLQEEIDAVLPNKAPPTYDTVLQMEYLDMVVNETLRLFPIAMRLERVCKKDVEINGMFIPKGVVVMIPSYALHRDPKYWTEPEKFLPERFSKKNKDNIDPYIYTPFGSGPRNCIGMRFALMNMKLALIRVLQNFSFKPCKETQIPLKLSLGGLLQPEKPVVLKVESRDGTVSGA

[7] = biological target: Cytochrome P450 2C9 (Homo sapiens, UniProt P11712); test: Inhibition of human CYP2C9; assay type: ADME
Chain of Cytochrome P450 2C9 (P11712 whole entry): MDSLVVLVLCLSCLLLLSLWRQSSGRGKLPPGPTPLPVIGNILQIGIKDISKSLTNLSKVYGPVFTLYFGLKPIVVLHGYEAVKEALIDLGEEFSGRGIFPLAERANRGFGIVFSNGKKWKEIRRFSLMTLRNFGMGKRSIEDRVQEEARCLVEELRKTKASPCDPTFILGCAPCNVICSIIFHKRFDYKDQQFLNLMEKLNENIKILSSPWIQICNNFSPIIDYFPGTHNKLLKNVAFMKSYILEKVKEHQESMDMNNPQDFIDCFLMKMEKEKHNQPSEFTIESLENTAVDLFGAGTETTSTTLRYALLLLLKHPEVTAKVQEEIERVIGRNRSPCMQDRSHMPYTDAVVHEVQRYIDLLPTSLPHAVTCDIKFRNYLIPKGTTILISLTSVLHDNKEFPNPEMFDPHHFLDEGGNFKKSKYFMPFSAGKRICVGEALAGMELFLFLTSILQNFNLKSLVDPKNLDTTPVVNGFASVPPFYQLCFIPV

[8] = biological target: Cytochrome P450 2C19 (Homo sapiens, UniProt P33261); test: Inhibition of human CYP2C19; assay type: ADME
Chain of Cytochrome P450 2C19 (P33261 whole entry): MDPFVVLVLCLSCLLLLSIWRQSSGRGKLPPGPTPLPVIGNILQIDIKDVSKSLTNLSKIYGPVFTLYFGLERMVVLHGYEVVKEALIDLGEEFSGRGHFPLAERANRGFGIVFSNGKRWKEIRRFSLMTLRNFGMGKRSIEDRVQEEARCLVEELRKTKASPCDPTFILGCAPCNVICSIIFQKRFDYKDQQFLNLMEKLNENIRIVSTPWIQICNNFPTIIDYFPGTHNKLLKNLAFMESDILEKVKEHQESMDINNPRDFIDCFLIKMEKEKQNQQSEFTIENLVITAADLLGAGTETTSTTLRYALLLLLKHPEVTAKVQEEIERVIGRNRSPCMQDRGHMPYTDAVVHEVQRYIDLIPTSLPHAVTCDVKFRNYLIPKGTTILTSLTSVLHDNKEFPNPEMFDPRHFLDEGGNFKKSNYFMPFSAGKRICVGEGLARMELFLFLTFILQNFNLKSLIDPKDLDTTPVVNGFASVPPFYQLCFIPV

[9] = biological target: T3, Cytochrome P450 1A2 (Homo sapiens, UniProt P05177); test: Inhibition of human CYP1A2; assay type: ADME
T3 sequence (P05177 whole entry): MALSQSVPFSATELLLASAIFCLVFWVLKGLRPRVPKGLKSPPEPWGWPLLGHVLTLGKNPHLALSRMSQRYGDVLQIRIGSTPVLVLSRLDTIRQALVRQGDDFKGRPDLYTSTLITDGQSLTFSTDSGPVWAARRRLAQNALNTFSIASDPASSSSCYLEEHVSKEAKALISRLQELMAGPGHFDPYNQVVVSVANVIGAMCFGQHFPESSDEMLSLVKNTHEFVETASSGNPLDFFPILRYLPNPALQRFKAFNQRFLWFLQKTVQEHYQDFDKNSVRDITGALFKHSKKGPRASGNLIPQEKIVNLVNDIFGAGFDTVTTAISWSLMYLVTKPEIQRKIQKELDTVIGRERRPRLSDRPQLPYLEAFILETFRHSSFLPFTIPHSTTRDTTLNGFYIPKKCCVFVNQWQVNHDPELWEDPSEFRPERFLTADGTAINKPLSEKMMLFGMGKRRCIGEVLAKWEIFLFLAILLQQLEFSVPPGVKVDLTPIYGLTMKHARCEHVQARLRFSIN

IC50 [1] [nM]	IC50 [2] [nM]	SMILES	further results
279		O=C(N[C@@H]1C[C@H]2CC[C@@H](C1)N2Cc1ccc2cc(F)ccc2c1)c1ccccc1N1CCCCC1	
225	7300	O=C(N[C@@H]1C[C@H]2CC[C@@H](C1)N2Cc1ccc2cc(F)ccc2c1)c1ccccc1C(=O)N1CCCC1	
12	3000	O=C(N[C@@H]1C[C@H]2CC[C@@H](C1)N2Cc1ccc2cc(F)ccc2c1)c1ccccc1C(=O)N1CCCCCC1	
85	26700	O=C(N[C@@H]1C[C@H]2CC[C@@H](C1)N2Cc1ccc2cc(F)ccc2c1)c1cnccc1C(=O)N1CCCCC1	
131	23500	O=C(N[C@@H]1C[C@H]2CC[C@@H](C1)N2Cc1ccc2cc(F)ccc2c1)c1ncccc1C(=O)N1CCCCC1	
98	18300	O=C(N[C@@H]1C[C@H]2CC[C@@H](C1)N2Cc1ccc2cc(F)ccc2c1)c1cccnc1C(=O)N1CCCCC1	
13	6800	O=C(N[C@@H]1C[C@H]2CC[C@@H](C1)N2Cc1ccc2cc(F)ccc2c1)c1ccncc1C(=O)N1CCCCC1	
23	6500	O=C(N[C@@H]1C[C@H]2CC[C@@H](C1)N2Cc1ccc2cc(F)ccc2c1)c1ccccc1C(=O)N1CCCCC1	

Second part, the molecule before the results:

SMILES	IC50 [1] [nM]	IC50 [2] [nM]	further results
O=C(N[C@@H]1C[C@H]2CC[C@@H](C1)N2Cc1ccc2cc(F)ccc2c1)c1ccccc1-n1cccc1	221		
CN1CCN(C(=O)c2ccccc2C(=O)N[C@@H]2C[C@H]3CC[C@@H](C2)N3Cc2ccc3cc(F)ccc3c2)CC1	482	7100	
O=C(N[C@@H]1C[C@H]2CC[C@@H](C1)N2Cc1ccc2cc(F)ccc2c1)c1ccccc1-c1nccs1	89	2400	
O=C(N[C@@H]1C[C@H]2CC[C@@H](C1)N2Cc1ccc2cc(F)ccc2c1)c1cc[n+]([O-])cc1C(=O)N1CCCCC1			Activity [3]: inactive; Activity [4]: inactive; Activity [5]: inactive
O=C(N[C@@H]1C[C@H]2CC[C@@H](C1)N2Cc1ccc2cc(F)ccc2c1)c1ccccc1-c1ccccn1	57	4000	
O=C(N[C@@H]1C[C@H]2CC[C@@H](C1)N2Cc1ccc2cc(F)ccc2c1)c1ccccc1-c1ccncc1	613		
O=C(N[C@@H]1C[C@H]2CC[C@@H](C1)N2Cc1ccc2cc(F)ccc2c1)c1ccccc1-n1ccnc1	217		
O=C(N[C@@H]1C[C@H]2CC[C@@H](C1)N2Cc1ccc2cc(F)ccc2c1)c1ccccc1-c1cccnc1	29	1600	
O=C(N[C@@H]1C[C@H]2CC[C@@H](C1)N2Cc1ccc2cc(F)ccc2c1)c1ccccc1OC1CCCCC1	118	580	
CN(C(=O)c1ccccc1C(=O)N[C@@H]1C[C@H]2CC[C@@H](C1)N2Cc1ccc2cc(F)ccc2c1)C1CCCCC1	44	2900	
O=C(N[C@@H]1C[C@H]2CC[C@@H](C1)N2Cc1ccc2cc(F)ccc2c1)c1ccccc1-c1cncnc1	93	2900	
O=C(N[C@@H]1C[C@H]2CC[C@@H](C1)N2Cc1ccc2cc(F)ccc2c1)c1ccccc1C(=O)N1CCOCC1	679	8200	
O=C(NC1C[C@H]2CC[C@H](C1)N2Cc1ccc2cc(F)ccc2c1)c1ccccc1-c1ccccc1 (stereo partly specified)			IC50 [6]: > 20000 nM; IC50 [7]: > 20000 nM; IC50 [8]: > 20000 nM; IC50 [9]: > 20000 nM
